The values below come from patent publication US20240109903A1, “SUBSTITUTED HETEROCYCLES FOR TREATING CANCER” (Northwestern University, priority 2022, published 2024).

Like-named read-outs stand apart in the source and are kept apart here. Where only a bound is given, the exact number is not on record here.

Broadly, the IC50 is the midpoint of a concentration-inhibition curve.

The test system of this assay is MV-4-11 acute myeloid leukemia cells. In words: CellTiter-Glo 2.0 cell viability, MV-4-11. The conditions noted are these: Homo sapiens. It counts as cell-based. The method, then: 2019 October; 94(4): 1813-1823.
Cell viability was assessed using the CellTiter-Glo 2.0 assay from Promega, which yields a signal proportional to the amount of ATP present in a cell population. Compounds were first dispensed into empty 96-well flat-bottom tissue culture-treated plates (Corning) using an Echo550. MV4-1 cells were diluted to a density of 0.1 million cells per ml, pipetted onto the compounds at a density of 1,000 cells per well for U937 and 3,000 cells per well for MV4-11, mixed, and incubated for 3 days at 37° C. with 5% C02. After incubating, 5 μl of cells from each well were added to 5 μl of CellTiter-Glo 2.0 reagent in a384-well white ProxiPlate (PerkinElmer), incubated for 20 minutes at ambient temperature, and luminescence was analyzed on an EnSpire plate reader. Graphing and regression analysis was performed in Graphpad Prism.
(In general: In ATP-based viability assays light output follows the ATP content of the culture.)

Setting [1] is: MV4-11, 72 h, MV-4-11 cells, 3 days, CellTiter-Glo 2.0, read-out: IC50 (uM) [Cell Type: MV-4-11].
Setting [2] is: MV4-11, bound stated in text, read-out: IC50 against MV-4-11 acute myeloid leukemia cells.

On to `Cc1n[nH]c(C)c1CCn1c(C(F)(F)F)cc2c(Cl)ncnc21` [NUCC-0226684], for which the IC50 is, setting by setting: under setting [1], 0.94 µM; under setting [2], below 2 µM.

On to `CC(C)(C)OC(=O)N1CC(Cn2c(C(F)(F)F)cc3c(Cl)ncnc32)C1` [NUCC-0226669], for which the IC50 is 1.02 µM under setting [1] and below 2 µM under setting [2].

As to `FC(F)(F)CN1CC(Cn2c(C(F)(F)F)cc3c(Cl)ncnc32)C1` [NUCC-0226672], the IC50 under setting [1] was found to be 0.871 µM and the IC50 under setting [2] was below 2 µM.

For `COc1ccc(Cn2c(C(F)(F)F)cc3c(Cl)ncnc32)cn1` [NUCC-0226697], the IC50 is, setting by setting: under setting [1], 1.08 µM; under setting [2], below 2 µM.

As for `FC(F)(F)c1cc2c(Cl)ncnc2n1CC1CNC1` [NUCC-0226670], the IC50 is 1.12 µM under setting [1] and below 2 µM under setting [2].

Regarding `CN(C)CCn1c(C(F)(F)F)cc2c(Cl)ncnc21` [NUCC-0226666], under setting [1], the IC50 was determined as 2.09 µM.

With `Oc1ncnc2c1cc(C(F)(F)F)n2CC1CCNCC1` [NUCC-0226688], the IC50 under setting [1] is above 20 µM.

`N=C(N)N1CC(Cn2c(C(F)(F)F)cc3c(Cl)ncnc32)C1` [NUCC-0226671]: the IC50 under setting [1] was above 20 µM.

Take `Cc1ncnc2c1cc(C(F)(F)F)n2CC1CCNCC1` [NUCC-0226696]: the concentration for half-maximal inhibition (IC50) under setting [1] was above 20 µM.

Take `CC(C)(C)OC(=O)N1CCN(CCn2c(C(F)(F)F)cc3c(Cl)ncnc32)CC1` [NUCC-0226681]: the IC50 runs as follows: under setting [1], 0.949 µM; under setting [2], below 2 µM.

Turning to `FC(F)(F)c1cc2c(Cl)ncnc2n1CCN1CCCC1` [NUCC-0226667], the concentration for half-maximal inhibition (IC50) runs as follows: under setting [1], 1.43 µM; under setting [2], below 2 µM.

As for `NC(=O)N1CCC(Cn2c(C(F)(F)F)cc3c(Cl)ncnc32)CC1` [NUCC-0226677], the 50% inhibitory concentration (IC50) under setting [1] was 1.6 µM and the IC50 under setting [2] is below 2 µM.

For `CC(C)(C)OC(=O)N1CCC(Cn2c(C(F)(F)F)cc3c(Cl)ncnc32)CC1` [NUCC-0226675, tert-butyl 4-((4-chloro-6-(trifluoromethyl)-7H-pyrrolo[2,3-d]pyrimidin-7-yl)methyl)piperidine-1-carboxylate], the IC50 under setting [1] was 2.51 µM.

As to `FC(F)(F)c1cc2c(Cl)ncnc2n1CCn1cccn1` [NUCC-0226685], under setting [1], the IC50 was 3.98 µM.

Consider `CC(C)(O)CCn1c(C(F)(F)F)cc2c(Cl)ncnc21` [NUCC-0226440], for which the IC50 was 0.23 µM under setting [1] and below 2 µM under setting [2].

As to `O=c1cc(Cn2c(C(F)(F)F)cc3c(Cl)ncnc32)cc[nH]1` [NUCC-0226693], the IC50 under setting [1] was 2.01 µM.

With `CC(=O)N1CCC(Cn2c(C(F)(F)F)cc3c(Cl)ncnc32)CC1` [NUCC-0226676], the 50% inhibitory concentration (IC50) under setting [1] is above 20 µM.

For `OCCOCCn1c(C(F)(F)F)cc2c(Cl)ncnc21` [NUCC-0226665], the IC50 was 1.23 µM under setting [1] and below 2 µM under setting [2].

Consider `FC(F)(F)c1cc2c(Cl)ncnc2n1CCC1CCNCC1` [NUCC-0226692], for which the IC50 under setting [1] was found to be 0.773 µM and the 50% inhibitory concentration (IC50) under setting [2] is below 2 µM.

On to `O=C1CCCN1CCn1c(C(F)(F)F)cc2c(Cl)ncnc21` [NUCC-0226439], for which the IC50 was 0.11 µM under setting [1] and below 2 µM under setting [2].

On to `CC(C)(C)OC(=O)N1CCC(CCn2c(C(F)(F)F)cc3c(Cl)ncnc32)CC1` [NUCC-0226678], for which the IC50 reads like this: under setting [1], 1.3 µM; under setting [2], below 2 µM.

Consider `FC(F)(F)c1cc2cncnc2n1CC1CCNCC1` [NUCC-0226687], for which the IC50 under setting [1] is above 20 µM.

Consider `FC(F)(F)CN1CCC(Cn2c(C(F)(F)F)cc3c(Cl)ncnc32)CC1` [NUCC-0226701], for which the IC50 is 0.919 µM under setting [1] and below 2 µM under setting [2].

In the case of `FC(F)(F)c1cc2c(Cl)ncnc2n1CCN1CCNCC1` [NUCC-0226682], the IC50 under setting [1] was 2.24 µM.

For the compound `O=S1(=O)CCC(Cn2c(C(F)(F)F)cc3c(Cl)ncnc32)CC1` [NUCC-0226668], the IC50 under setting [1] worked out at 2.88 µM.

Consider `FC(F)(F)c1cc2c(Cl)ncnc2n1Cc1cccnc1` [NUCC-0226690], for which the IC50 is, setting by setting: under setting [1], 0.562 µM; under setting [2], below 2 µM.

Take `FC(F)(F)c1cc2c(Cl)ncnc2n1CC1CCOCC1` [NUCC-0226673]: under setting [1], the IC50 is 2.68 µM.

With `Cc1cc2c(Cl)ncnc2n1CC1CCNCC1` [NUCC-0226699], the 50% inhibitory concentration (IC50) under setting [1] is above 20 µM.

Regarding `Fc1ccc(Cn2c(C(F)(F)F)cc3c(Cl)ncnc32)cc1` [NUCC-0226686], the IC50 was 1.13 µM under setting [1] and below 2 µM under setting [2].

`FC(F)(F)c1cc2c(Cl)ncnc2n1Cc1ccncc1` [NUCC-0226691]: the concentration for half-maximal inhibition (IC50) under setting [1] stood at 1.32 µM and the IC50 under setting [2] is below 2 µM.
